Experimental data published in patent publication US9315503B2, “Kinase inhibitors” (CHIESI FARMACEUTICI S.p.A., priority 2011, dated 2016).
Counter-ions that a name gives are not always drawn.

What was measured:
p38alpha = molecular target: T1, p38alpha (Homo sapiens, UniProt Q16539); experiment: P38Alpha enzyme inhibition assay (Alphascreen kinase activity assay); format: biochemical; details: 100 pM p38alpha, 250 μM ATP, 2 hours pre-incubation at 25° C., read-out: p38α inhibition (IC50 values)
T1 construct: purchased Invitrogen PV3304
T1 sequence (Q16539 whole entry): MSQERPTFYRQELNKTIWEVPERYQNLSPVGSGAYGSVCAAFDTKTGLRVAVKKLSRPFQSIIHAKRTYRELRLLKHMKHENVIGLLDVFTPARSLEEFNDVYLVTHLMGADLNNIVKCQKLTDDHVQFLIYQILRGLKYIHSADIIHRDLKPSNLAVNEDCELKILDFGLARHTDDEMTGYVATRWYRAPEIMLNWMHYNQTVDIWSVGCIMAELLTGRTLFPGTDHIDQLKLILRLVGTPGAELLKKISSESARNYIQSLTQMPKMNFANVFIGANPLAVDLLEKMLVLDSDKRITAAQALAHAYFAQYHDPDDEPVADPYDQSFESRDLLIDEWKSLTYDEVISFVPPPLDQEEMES
Method in brief: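 p38α (100 pM) with ATF-2 fusion protein substrate (0.3 µg/ml) in pH 7.5 HEPES/MgCl2 buffer, 1% DMSO, preincubated 2 h at 25°C with compound. Reaction started with 250 µM ATP, ran 1 h at 25°C, then stopped with EDTA. Phospho-ATF2 antibody detected by AlphaScreen luminescence; IC50 from concentration-response curves.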

[1] = tested on: LPS-stimulated TNFα release from PBMCs; experiment: LPS-stimulated PBMC TNFα release assay; format: cell-based; details: inhibition of TNFα release, human PBMCs, LPS 10 ng/ml, 18 h, ELISA, read-out: p38α inhibition (IC50 values)
Method in brief: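 Healthy-donor human PBMCs, density-gradient isolated, preincubated 1 h at 37 °C with compound in 1% FBS RPMI 1640, then stimulated with LPS (10 ng/ml) for 18 h. Supernatant TNFα by ELISA; IC50 from dose-response of % inhibition of control release, n≥3 experiments.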

IC50 (p38alpha) | SMILES | IC50 [1]
< 10 nM | Cc1ccc(-n2nc(C(C)(C)C)cc2NC(=O)N[C@H]2CC[C@@H](Oc3ccc4nnc(CC5CCN(CC(F)F)CC5)n4c3)c3ccccc32)cc1 [Example 23, 1-(5-tert-Butyl-2-p-tolyl-2H-pyrazol-3-yl)-3-((1S,4R)-4-{3-[1-(2,2-difluoro-ethyl)-piperidin-4-ylmethyl]-[1,2,4]triazolo[4,3-a]pyridin-6-yloxy}-1,2,3,4-tetrahydro-naphthalen-1-yl)-urea] | < 10 nM
< 10 nM | CN1CCCC[C@H]1c1nnc2ccc(O[C@@H]3CC[C@H](NC(=O)Nc4cc(C(C)(C)C)nn4-c4ccc(CO)cc4)c4ccccc43)cn12 [Example 65, 1-[5-tert-Butyl-2-(4-hydroxymethyl-phenyl)-2H-pyrazol-3-yl]-3-{(1S,4R)-4-[3-((S)-1-methyl-piperidin-2-yl)-[1,2,4]triazolo[4,3-a]pyridin-6-yloxy]-1,2,3,4-tetrahydro-naphthalen-1-yl}-urea, partial formate salt] | < 10 nM
< 10 nM | C[C@H]1CCCCN1c1nnc2ccc(O[C@@H]3CC[C@H](NC(=O)Nc4cc(C(C)(C)C)nn4-c4cccc(CN5CCOCC5)c4)c4ccccc43)cn12 [Example 97, 1-[5-tert-Butyl-2-(3-morpholin-4-ylmethyl-phenyl)-2H-pyrazol-3-yl]-3-{(1S,4R)-4-[3-((S)-2-methyl-piperidin-1-yl)-[1,2,4]triazolo[4,3-a]pyridin-6-yloxy]-1,2,3,4-tetrahydro-naphthalen-1-yl}-urea formate salt] | < 10 nM
< 10 nM | C[C@@H]1CCC[C@H](C)N1c1nnc2ccc(O[C@@H]3CC[C@H](NC(=O)Nc4cc(C(C)(C)C)nn4-c4cnn(CCN5CCOCC5)c4)c4ccccc43)cn12 [Example 124, 1-[3-tert-Butyl-1′-(2-morpholin-4-yl-ethyl)-1′H-[1,4′]bipyrazolyl-5-yl]-3-((1S,4R)-4-[3-((2S,6R)-2,6-dimethyl-piperidin-1-yl)-[1,2,4]triazolo[4,3-a]pyridin-6-yloxy]-1,2,3,4-tetrahydro-naphthalen-1-yl)-urea formate salt] | < 10 nM
< 10 nM | CN(C)CCn1cc(-n2nc(C(C)(C)C)cc2NC(=O)N[C@H]2CC[C@@H](Oc3ccc4nnc(N5CCCCC5)n4c3)c3ccccc32)cn1 [Example 108, 1-[3-tert-Butyl-1′-(2-dimethylamino-ethyl)-1′H-[1,4′]bipyrazolyl-5-yl]-3-[(1S,4R)-4-(3-piperidin-1-yl-[1,2,4]triazolo[4,3-a]pyridin-6-yloxy)-1,2,3,4-tetrahydro-naphthalen-1-yl]-urea] | < 10 nM
< 10 nM | CC(C)(C)c1cc(NC(=O)N[C@H]2CC[C@@H](Oc3ccc4nnc(N5CCCCC5)n4c3)c3ccccc32)n(-c2ccc(O)cc2)n1 [Example 70, 1-[5-tert-Butyl-2-(4-hydroxy-phenyl)-2H-pyrazol-3-yl]-3-[(1S,4R)-4-(3-piperidin-1-yl-[1,2,4]triazolo[4,3-a]pyridin-6-yloxy)-1,2,3,4-tetrahydro-naphthalen-1-yl]-urea] | < 10 nM
< 10 nM | Cc1ccc(-n2nc(C(C)(C)C)cc2NC(=O)N[C@H]2CC[C@@H](Oc3ccc4nnc(N5CCCC5)n4c3)c3ccccc32)cc1 [Example 75, 1-(5-tert-Butyl-2-p-tolyl-2H-pyrazol-3-yl)-3-[(1S,4R)-4-(3-pyrrolidin-1-yl-[1,2,4]triazolo[4,3-a]pyridin-6-yloxy)-1,2,3,4-tetrahydro-naphthalen-1-yl]-urea] | < 10 nM
< 10 nM | Cc1ccc(-n2nc(C(C)(C)C)cc2NC(=O)N[C@H]2CC[C@@H](Oc3ccc4nnc([C@H]5COCCN5C)n4c3)c3ccccc32)cc1 [Example 83, 1-(5-tert-Butyl-2-p-tolyl-2H-pyrazol-3-yl)-3-{(1S,4R)-4-[3-((S)-4-methyl-morpholin-3-yl)-[1,2,4]triazolo[4,3-a]pyridin-6-yloxy]-1,2,3,4-tetrahydro-naphthalen-1-yl}-urea, partial formate salt] | < 10 nM

Further lines, the compound ahead of its results:

SMILES | IC50 (p38alpha) | IC50 [1]
Cc1ccc(-n2nc(C(C)(C)C)cc2NC(=O)N[C@H]2CC[C@@H](Oc3ccc4nnc(N5CCC(C)(O)CC5)n4c3)c3ccccc32)cc1 [Example 79, 1-(5-tert-Butyl-2-p-tolyl-2H-pyrazol-3-yl)-3-{(1S,4R)-4-[3-(4-hydroxy-4-methyl-piperidin-1-yl)-[1,2,4]triazolo[4,3-a]pyridin-6-yloxy]-1,2,3,4-tetrahydro-naphthalen-1-yl}-urea] | < 10 nM | < 10 nM
Cc1ccc(-n2nc(C(C)(C)C)cc2NC(=O)N[C@H]2CC[C@@H](Oc3ccc4nnc(N5CCCOCC5)n4c3)c3ccccc32)cc1 [Example 49, 1-(5-tert-Butyl-2-p-tolyl-2H-pyrazol-3-yl)-3-[(1S,4R)-4-(3-[1,4]oxazepan-4-yl-[1,2,4]triazolo[4,3-a]pyridin-6-yloxy)-1,2,3,4-tetrahydro-naphthalen-1-yl]-urea] | < 10 nM | < 10 nM
Cc1ccc(-n2nc(C(C)(C)C)cc2NC(=O)N[C@H]2CC[C@@H](Oc3ccc4cnn(CCO)c4c3)c3ccccc32)cc1 [Example 11, 1-(5-tert-Butyl-2-p-tolyl-2H-pyrazol-3-yl)-3-{(1S,4R)-4-[1-(2-hydroxy-ethyl)-1H-indazol-6-yloxy]-1,2,3,4-tetrahydro-naphthalen-1-yl}-urea] | < 10 nM | 10 to 100 nM
C[C@@H]1CCC[C@H](C)N1c1nnc2ccc(O[C@@H]3CC[C@H](NC(=O)Nc4cc(C(C)(C)C)nn4CCN4CCOCC4)c4ccccc43)cn12 [Example 121, 1-[5-tert-Butyl-2-(2-morpholin-4-yl-ethyl)-2H-pyrazol-3-yl]-3-{(1S,4R)-4-[3-((2S,6R)-2,6-dimethyl-piperidin-1-yl)-[1,2,4]triazolo[4,3-a]pyridin-6-yloxy]-1,2,3,4-tetrahydro-naphthalen-1-yl}-urea] | < 10 nM | < 10 nM
Cc1ccc(-n2nc(C(C)(C)C)cc2NC(=O)N[C@H]2CC[C@@H](Oc3ccc4nnc(N5CCC(C(C)(C)O)CC5)n4c3)c3ccccc32)cc1 [Example 74, 1-(5-tert-Butyl-2-p-tolyl-2H-pyrazol-3-yl)-3-((1S,4R)-4-{3-[4-(1-hydroxy-1-methyl-ethyl)-piperidin-1-yl]-[1,2,4]triazolo[4,3-a]pyridin-6-yloxy}-1,2,3,4-tetrahydro-naphthalen-1-yl)-urea] | < 10 nM | < 10 nM
Cc1ccc(-n2nc(C(C)(C)C)cc2NC(=O)N[C@H]2CC[C@@H](Oc3ccc4nnc(N5CCN(CCO)CC5)n4c3)c3ccccc32)cc1 [Example 94, 1-(5-tert-Butyl-2-p-tolyl-2H-pyrazol-3-yl)-3-((1S,4R)-4-{3-[4-(2-hydroxy-ethyl)-piperazin-1-yl]-[1,2,4]triazolo[4,3-a]pyridin-6-yloxy}-1,2,3,4-tetrahydro-naphthalen-1-yl)-urea] | < 10 nM | 10 to 100 nM
Cc1ccc(-n2nc(C(C)(C)C)cc2NC(=O)N[C@H]2CC[C@@H](Oc3ccc4nnc(N5CC[C@@H](O)C5)n4c3)c3ccccc32)cc1 [Example 38, 1-(5-tert-Butyl-2-p-tolyl-2H-pyrazol-3-yl)-3-{(1S,4R)-4-[3-((R)-3-hydroxy-pyrrolidin-1-yl)-[1,2,4]triazolo[4,3-a]pyridin-6-yloxy]-1,2,3,4-tetrahydro-naphthalen-1-yl}-urea] | < 10 nM | < 10 nM
Cc1ccc(-n2nc(C(C)(C)C)cc2NC(=O)N[C@H]2CC[C@@H](Oc3ccc4nnc(N(C)CCO)n4c3)c3ccccc32)cc1 [Example 25, 1-(5-tert-Butyl-2-p-tolyl-2H-pyrazol-3-yl)-3-[(1S,4R)-4-{3-[(2-hydroxy-ethyl)-methyl-amino]-[1,2,4]triazolo[4,3-a]pyridine-6-yloxy]-1,2,3,4-tetrahydro-naphthalen-1-yl]-urea] | < 10 nM | < 10 nM
CC(C)(C)c1cc(NC(=O)N[C@H]2CC[C@@H](Oc3ccc4nnc(N5CCCCC5)n4c3)c3ccccc32)n(-c2cnn(CCCN3CCOCC3)c2)n1 [Example 114, 1-[3-tert-Butyl-1′-(3-morpholin-4-yl-propyl)-1′H-[1,4′]bipyrazolyl-5-yl]-3-[(1S,4R)-4-(3-piperidin-1-yl-[1,2,4]triazolo[4,3-a]pyridin-6-yloxy)-1,2,3,4-tetrahydro-naphthalen-1-yl]-urea formate salt] | < 10 nM | < 10 nM
Cc1ccc(-n2nc(C(C)(C)C)cc2NC(=O)N[C@H]2CC[C@H](Oc3ccc4nnc([C@@H]5CCCN5C)n4c3)c3ccccc32)cc1 [Example 72, 1-(5-tert-Butyl-2-p-tolyl-2H-pyrazol-3-yl)-3-{(1S,4S)-4-[3-((S)-1-methyl-pyrrolidin-2-yl)-[1,2,4]triazolo[4,3-a]pyridin-6-yloxy]-1,2,3,4-tetrahydro-naphthalen-1-yl}-urea] | < 10 nM | < 10 nM
Cc1ccc(-n2nc(C(C)(C)C)cc2NC(=O)N[C@H]2CC[C@@H](Oc3ccc(C#N)nc3)c3ccccc32)cc1 [Example 9, 1-(5-tert-Butyl-2-p-tolyl-2H-pyrazol-3-yl)-3-[(1S,4R)-4-(6-cyano-pyridin-3-yloxy)-1,2,3,4-tetrahydro-naphthalen-1-yl]-urea] | < 10 nM | 100 to 1000 nM
Cc1ccc(-n2nc(C(C)(C)C)cc2NC(=O)N[C@H]2CC[C@@H](Oc3ccc4nnc(N5CCC(CCO)CC5)n4c3)c3ccccc32)cc1 [Example 66, 1-(5-tert-Butyl-2-p-tolyl-2H-pyrazol-3-yl)-3-{(1S,4R)-4-[3-(4-hydroxyethyl-piperidin-1-yl)-[1,2,4]triazolo[4,3-a]pyridin-6-yloxy]-1,2,3,4-tetrahydro-naphthalen-1-yl}-urea] | < 10 nM | < 10 nM
